Laboratory results as given in US20230119324A1, “EGFR INHIBITION TRIGGERS AN ADAPTIVE RESPONSE BY CO-OPTING ANTIVIRAL SIGNALING PATHWAYS IN LUNG CANCER” (The United States Government as represented by the …, priority 2020, published 2023).

What was measured:
[1] = system: IFNAR1; test: Western blot for IFNAR1 expression; assay type: cell-based; details: HCC827, PC9 0.1 µM; A549, H441 1 µM erlotinib
Protocol: Western blot and immunoprecipitation were performed according to standard protocols. Western blot results are representative of at least 3 independent experiments. EGFR (06-847) antibody was from EMD Millipore (Billerica, MA); p-EGFR (Tyr1068) (2236), p-TBK1 (Ser172) (5483), TBK1 (3504), IKKε (2905), IRF3 (11904), K63-Ub (12930), RIG-I (3743), STAT1 (9172), p-STAT1 (Tyr701) (9167), AhR (83200), LAMIN A/C (4777), STING (3337), p-STING (Ser366) (19781), PD1 (86163), PD-L1 (13684), PD-L2 (82723) and IκBα (4814) antibodies were from Cell Signaling Technology (Danvers, MA); IFNAR1 (sc-7391), IFNGR1 (sc-12755), TNFR1 (sc-8346), and β-Actin (sc-47778) were from Santa Cruz Biotechnology (Dallas, TX); TRIM32 (Mab6515) antibody was from R&D (Minneapolis, MN); p-IRF3 (Ser386) (ab76493) antibody was from Abcam (Cambridge, MA).
Cell lysates were collected for detecting IFNAR1 expression by Western blot.

[2] = system: AhR; test: Western blot and immunofluorescent staining for AhR; assay type: cell-based; details: EGFR mutant and EGFR wt cells; 0.1 or 1 µM erlotinib
Protocol: Cells were cultured on coverslips in plates, after treatment cells were fixed with 4% Paraformaldehyde (PFA) followed by cell membrane permeabilization in 0.5 % Triton X-100/PBS and blocked in 1% BSA/PBS. The primary anti-AhR antibody (Santa Cruz Biotechnology, sc-101104, 1:200) was incubated at 4° C. overnight, followed with Alexa555-conjugated secondary antibodies (Cell Signaling, 4413, 1:500) at room temperature for 2 hours. […] The cells were examined using fluorescence microscope.
AhR nuclear translocation was detected by Western blot. […]

[3] = system: KRas G12D lung tumors; test: KRAS LSL-G12D transgenic lung tumor model, MRI; assay type: in vivo; details: oral erlotinib 100 mg/kg/d, i.p. anti-mouse IFNAR1 antibody 3 mg/kg/d, 28 continuous days
Protocol: LSL-Kras G12D mice (008179): were purchased from Jackson laboratories and the colony was expanded by breeding heterozygous LSL-Kras G12D mice with wildtype mice. Genotyping was performed per the protocol on Jackson website. Lung tumors were induced in mice carrying the LSL-Kras G12D allele with intranasal administration of 2.5 x 10^8 PFU Adeno-CMV-Cre (University of Iowa). Treatments were initiated once the tumors were confirmed by with Magnetic resonance imaging (MRI) at about 10-12 weeks after tumor induction.
MRI Imaging was conducted at UT Southwestern Mouse MRI Core, Advanced Imaging Research Center, using a 7T small animal MRI scanner (Bruker, Rheinstetten, Germany) equipped with a 40 mm quadrature Radiofrequency (RF) coil (ExtendMR LLC, Milpitas, CA). […] Finally, higher resolution gradient echo images were recorded on the transverse plane, with the major parameters as follows: The repetition time (TR) = 200 ms (Note: the actual TR is changing according to ECG R-R interval, in range of 200 ms to 240 ms), the echo time (TE) = 1.966 ms, the flip angle (FA) = 45°, the number of average = 12, the field of view (FOV) = 32 x 32 mm^2, the matrix size = 256 x 256, the slice number = 17-21 (changed upon the mouse lung size), and the slice thickness = 1 mm without any gap. […]
Bi-weekly MRI scanning was used to monitor tumor growth. Tumor sizes were calculated by ImageJ. […]

`C#Cc1cccc(Nc2ncnc3cc(OCCOC)c(OCCOC)cc23)c1` [erlotinib] was tested, and the “level of type I IFN receptor” value [1] was “unchanged”, the Ahr levels [2] was “not altered” and the “tumor growth by MRI” value [3] was “robust tumor growth”.
